Test results as given in patent US20030113330A1, “Methods for treating pulmonary fibrosis” (priority 1999, published 2003).
Entries after “also recorded” stand apart in the source; their conditions may differ.

Columns and labels:
Format in all cases: cell-based
Caspase 1/ICE = biological target: T1, Caspase 1/ICE (Homo sapiens, UniProt P29466); test: Caspase 1/ICE activity in intact A549 cells (Ac-YVAD-AMC); details: 50 ng/ml captopril
T1 construct: endogenous in cells; host or cells: A549 human lung epithelial cell line
T1 sequence (P29466 120-404): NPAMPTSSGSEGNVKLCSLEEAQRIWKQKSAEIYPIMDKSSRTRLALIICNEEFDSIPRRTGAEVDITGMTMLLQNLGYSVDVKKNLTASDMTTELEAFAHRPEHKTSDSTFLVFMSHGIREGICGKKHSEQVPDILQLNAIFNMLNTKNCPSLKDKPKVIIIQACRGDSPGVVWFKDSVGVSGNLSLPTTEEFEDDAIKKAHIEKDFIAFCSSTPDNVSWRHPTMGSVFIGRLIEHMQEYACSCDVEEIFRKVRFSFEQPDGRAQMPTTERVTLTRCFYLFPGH
Protocol: (§1) Caspase Assays. The enzymatic activities of Caspase 1/interleukin-1b-converting enzyme (ICE) and Caspase 3/CPP32/YAMA were determined in intact A549 cell cultures pre-incubated under conditions identical to those used for morphologic assays of apoptosis. After a 20 h incubation with antibodies and/or captopril, cells were trypsinized from the culture vessels and resuspended in serum-free culture medium containing anti-FAS antibodies and/or captopril at the same concentrations as during the preincubation. After one hour, fluorogenic peptide substrates specific to each enzyme were added separately to cuvettes containing cell suspension for measurement of total activity in intact cells. […] Production of fluorescent product over time was monitored in a spectrofluorometer at 380 nm excitation and 450 nm emission. […]
(§2) The same concentration of captopril also abrogated FAS-induced stimulation of Caspase 1 (ICE) (p<0.01 compared to control) and Caspase 3/CPP32/YAMA (p<0.01 compared to FASmAb treatment alone) activities. […] Cells were then analyzed in suspension culture for the activity of Caspase 1/ICE with peptide substrate Ac-YVAD-AMC or for activity of Caspase 3/CPP32/YAMA with peptide substrate Ac-DEVD-AMC as described above. […]

Caspase 3/CPP32/YAMA = biological target: T2, Caspase 3/CPP32/YAMA (Homo sapiens, UniProt P42574); test: Caspase 3/CPP32/YAMA activity in intact A549 cells (Ac-DEVD-AMC); details: 50 ng/ml captopril
T2 construct: endogenous in cells; host or cells: A549 human lung epithelial cell line
T2 sequence (P42574 29-277): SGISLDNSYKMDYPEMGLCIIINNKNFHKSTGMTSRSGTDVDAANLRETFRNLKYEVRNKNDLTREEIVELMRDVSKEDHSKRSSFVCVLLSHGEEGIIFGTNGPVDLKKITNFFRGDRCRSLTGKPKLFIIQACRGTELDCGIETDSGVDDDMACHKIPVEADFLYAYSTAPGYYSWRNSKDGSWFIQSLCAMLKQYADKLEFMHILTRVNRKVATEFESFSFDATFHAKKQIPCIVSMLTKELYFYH
Protocol: as §1, §2

[1] = system: angiotensinogen (ANGEN) mRNA; test: Quantitative RT-PCR of angiotensinogen mRNA in Fas-activated primary rat AEC; details: Fas ligand
Protocol: RT-PCR. Reverse transcriptase polymerase chain reaction (RT-PCR) assay of angiotensinogen gene products was performed as described in Wang et al., Am. J. Physiol. 276:L885-L889 (1999) in a total reaction volume of 30 μl. Total RNA was isolated by the RNeasy Mini protocol (Qiagen Co., Santa Clarita, Calif.). The reaction was performed for 1 hour at 45 C. followed by 20 cycles of PCR amplification. PCR amplification was performed with 10 ul aliquots of cDNA, equivalent to 1 ug of the starting RNA. The identity of expressed genes was determined by expected size of the PCR product in 1.6% agarose gels.
For RT-PCR of rat-specific gene products, the following primers were used: for angiotensinogen, coding=5′ […] 3′, and noncoding=5′ […] 3′, which yields a PCR product of 226 bp by single-step RT-PCR (Pierzchalski et al., Exp. Cell Res. 234:57-65 (1997)). For β-microglobulin, the primers used were: coding=5′ […] 3′, and noncoding=5′ […] 3′, which yields a product of 249 bp (Katwa et al., Cardiovasc. Res. 29:57-64 (1995)).
To confirm this, total RNA was isolated from human A549 cells or primary rat AEC that were unactivated (CTL) or activated with Fas-ligating CH-11 antibody or purified Fas ligand in the presence or absence of saralasin (SAR). Quantitative RT-PCR was performed with primers specific for human or rat angiotensinogen (ANGEN), β-actin or β-microglobulin (b-MG). […]

[2] = system: primary rat alveolar epithelial cells; test: Apoptosis of rat AEC induced by human lung fibroblast-conditioned media; details: saralasin 50 ug/ml, DEVD-fmk 60 uM, anti-ANGII IgG 1 ug/ml
Text: Fibroblast Isolation, Culture and Preparation of Conditioned Media. Primary human lung fibroblasts were isolated at the National Institute of Respiratory Diseases, Mexico. […] Of these, “fibrotic” lung fibroblast strains (HIPF-X, where X=patient number) were derived from patients suffering from either of two different types of interstitial lung disease (ILD): Idiopathic Pulmonary Fibrosis (IPF) and Chronic Hypersensitivity Pneumonitis (CHP). In both diseases, patients had clinical, functional and radiologic features which fulfill the diagnostic criteria for an ILD. […] Briefly, all patients had progressive dyspnea, bilateral reticulonodular images on chest roentgenogram, restrictive lung functional impairment with decreased lung volumes and compliance, and hypoxemia at rest that worsened with exercise. […] Patients with IPF had neither antecedents of any occupational or environmental exposure nor other known cause of ILD. […] Biopsies lacked granulomas, vasculitis, microorganisms, and inorganic material by polarized light microscopy.
Control fibroblasts were obtained from individuals having undergone a lobectomy for removal of a primary lung tumor. […] Lung fibroblasts from normal or fibrotic tissue were isolated by trypsin dispersion, and fibroblast strains were established in Dulbecco's modified Eagle's medium (or in Ham's F-12 medium) supplemented with 10% fetal calf serum, 200 U/ml penicillin, and 200 mg/ml streptomycin. […]
Epithelial Cell Culture and Detection of Apoptosis. […] All epithelial cell preparations were greater than 90% pure as determined by acridine orange uptake into lamellar bodies. […] Epithelial cell apoptosis was detected by the assessment, under fluorescence microscopy, of chromatin condensation and nuclear fragmentation within cytokeratin-positive cells after ethanol fixation and staining with propidium iodide. […]
The percentage increase in rat AEC apoptosis was determined by propidium iodide assay of primary alveolar epithelial cells exposed to serum-free conditioned media, see Uhal et al., Am.

Row | Compound | effect on FAS-inducible Caspase 1 activity (Caspase 1/ICE) | effect on FAS-inducible Caspase 3 activity (Caspase 3/CPP32/YAMA) | effect on accumulation of ANGEN mRNA during Fas activation [1] | inhibition of apoptosis induced by HIPF-conditioned media [2]
1 | C[C@H](CS)C(=O)N1CCC[C@H]1C(=O)O [captopril] | completely abrogated | significantly decreased; also recorded: abrogated |  | 
2 | CNCC(=O)N[C@@H](CCCN=C(N)N)C(=O)N[C@H](C(=O)N[C@@H](Cc1ccc(O)cc1)C(=O)N[C@H](C(=O)N[C@@H](Cc1cnc[nH]1)C(=O)N1CCC[C@H]1C(=O)N[C@@H](C)C(=O)O)C(C)C)C(C)C [saralasin] |  |  | had no effect | completely abrogated; also recorded: eliminated
